Literature values as cited in US20100260718A1, “IRF-4 AS A TUMOR SUPPRESSOR AND USES THEREOF” (Brandels University, priority 2007, published 2010).

What was measured:
[1] = test system: primitive CML progenitors
IRF-4 = details: patients with CML, downregulated before treatment

IFN-α
toxicity to the more primitive CML progenitors, relative to imatinib [1]: higher toxicity | IRF-4 expression (IRF-4): restored
